Test system: not listed separately
Assay: Metabolic (microsomal) stability assay, human liver microsomes (HLM)
Type: in vitro ADME
Conditions: 1 μM test compound, 37° C.
Description: (§1) Metabolic (Microsomal) Stability Assay: The metabolic degradation of the test compound is assayed at 37° C. with pooled liver microsomes (mouse (MLM), rat (RLM) or human (HLM)). The final incubation volume of 74 μL per time point contains TRIS buffer (pH 7.5; 0.1 M), magnesium chloride (6.5 mM), microsomal protein (0.5 mg/mL for mouse/rat, 1 mg/mL for human specimens) and the test compound at a final concentration of 1 μM. Following a short preincubation period at 37° C., the reactions are initiated by addition of 8 μL beta-nicotinamide adenine dinucleotide phosphate, reduced form (NADPH, 10 mM) and terminated by transfering an aliquot into solvent after different time points. Additionally, the NADPH-independent degradation is monitored in incubations without NADPH, terminated at the last time point by addition of acetonitrile. The quenched incubations are pelleted by centrifugation (1811 g, 5 min). An aliquot of the supernatant is assayed by LC-MS/MS for the amount of parent compound. In vitro intrinsic clearance (CLint, in vitro) is calculated from the time course of the disappearance of the test drug during the microsomal incubation. Each plot is fitted to the first-order elimination rate constant as C(t)=C0*exp(−ke*t), where C(t) and C0 are the concentration of unchanged test drug at incubation time t and that at preincubation and ke is the disappearance rate constant of the unchanged drug. Subsequently, CLint, in vitro (μL min^−1·amount protein) values are converted to CLint, in vitro (mL min^−1·kg^−1) for the whole body. CLint, in vitro data are scaled up using physiological parameters. For better across species comparison the predicted clearance is expressed as percent of the liver blood flow [% QH] in the individual species. In general, high stability (corresponding to low % QH) of the compounds across species is desired.

Row | Compound | HLM [% QH]
1 | Cc1nc(N[C@H](C)c2cccc(C(F)F)c2F)c2cn(C3CC(F)(F)C3)c(=O)cc2n1 [I-13] | <24
2 | Cc1nc(N[C@H](C)c2cccc(C(F)F)c2F)c2cn(C3(C)CC(F)(F)C3)c(=O)cc2n1 [I-14] | 27
3 | Cc1nc(N[C@H](C)c2cccc(C(F)(F)F)c2)c2cn(C(C)C)c(=O)cc2n1 [I-27] | <24
4 | Cc1nc(N[C@H](C)c2cccc(C(F)(F)F)c2C)c2cn([C@H]3C[C@](O)(C(F)(F)F)C3)c(=O)cc2n1 [I-47] | 24
5 | Cc1nc(N[C@H](C)c2cccc(C(C)(F)F)c2)c2cn(C34CC(F)(C3)C4)c(=O)cc2n1 [I-51] | <24
6 | C[C@@H](Nc1ncnc2cc(=O)n([C@H]3C[C@H](F)C3)cc12)c1cccc(C(F)F)c1F [I-69] | <24
7 | C[C@@H](Nc1ncnc2cc(=O)n(C34CC(F)(C3)C4)cc12)c1cccc(C(F)F)c1F [I-71] | <24
8 | Cc1nc(N[C@H](C)c2cccc(C(F)F)c2F)c2cn([C@H]3C[C@@H]3C(F)F)c(=O)c(F)c2n1 [I-83] | <24
9 | Cc1nc(N[C@H](C)c2cccc(C(F)F)c2F)c2cn([C@H]3C[C@H](F)C3)c(=O)c(F)c2n1 [I-84] | <24
10 | Cc1nc(N[C@H](C)c2cccc(C(F)F)c2F)c2cn([C@]3(C(F)(F)F)CCOC3)c(=O)c(F)c2n1 [I-85] | 24
11 | Cc1nc(N[C@H](C)c2cccc(C(C)(F)F)c2F)c2cn(C3(C)CC3)c(=O)c(F)c2n1 [I-86] | <24
12 | Cc1nc(N[C@H](C)c2cccc(C(F)(F)C(C)(C)O)c2F)c2cn(C3(C)CC3)c(=O)c(F)c2n1 [I-88] | 24
13 | Cc1nc(N[C@H](C)c2cccc(C(F)(F)C(C)(C)O)c2F)c2cn(C34CC(C3)C4)c(=O)c(F)c2n1 [I-90] | <24
14 | C[C@@H](Nc1ncnc2c(F)c(=O)n(C3(C(F)F)CC3)cc12)c1cccc(C(F)F)c1F [I-96] | <24
15 | Cc1nc(N[C@H](C)c2cccc(C(F)(F)F)c2)c2cn(C3(C(F)F)CC3)c(=O)cc2n1 [I-97] | <24

Test system: not listed separately
Assay: Metabolic (microsomal) stability assay, mouse liver microsomes (MLM)
Type: in vitro ADME
Conditions: 1 μM test compound, 37° C.
Description: as §1

Row | Compound | MLM [% QH]
16 | Cc1nc(N[C@H](C)c2cccc(C(F)F)c2F)c2cn(C3CC(F)(F)C3)c(=O)cc2n1 [I-13] | <24
17 | Cc1nc(N[C@H](C)c2cccc(C(F)F)c2F)c2cn(C3(C)CC(F)(F)C3)c(=O)cc2n1 [I-14] | 26
18 | Cc1nc(N[C@H](C)c2cccc(C(F)(F)F)c2)c2cn(C(C)C)c(=O)cc2n1 [I-27] | 88
19 | Cc1nc(N[C@H](C)c2cccc(C(F)(F)F)c2C)c2cn([C@H]3C[C@](O)(C(F)(F)F)C3)c(=O)cc2n1 [I-47] | <24
20 | Cc1nc(N[C@H](C)c2cccc(C(C)(F)F)c2)c2cn(C34CC(F)(C3)C4)c(=O)cc2n1 [I-51] | <24
21 | C[C@@H](Nc1ncnc2cc(=O)n([C@H]3C[C@H](F)C3)cc12)c1cccc(C(F)F)c1F [I-69] | <24
22 | C[C@@H](Nc1ncnc2cc(=O)n(C34CC(F)(C3)C4)cc12)c1cccc(C(F)F)c1F [I-71] | <24
23 | Cc1nc(N[C@H](C)c2cccc(C(F)F)c2F)c2cn([C@H]3C[C@@H]3C(F)F)c(=O)c(F)c2n1 [I-83] | <24
24 | Cc1nc(N[C@H](C)c2cccc(C(F)F)c2F)c2cn([C@H]3C[C@H](F)C3)c(=O)c(F)c2n1 [I-84] | <24
25 | Cc1nc(N[C@H](C)c2cccc(C(F)F)c2F)c2cn([C@]3(C(F)(F)F)CCOC3)c(=O)c(F)c2n1 [I-85] | 55
26 | Cc1nc(N[C@H](C)c2cccc(C(C)(F)F)c2F)c2cn(C3(C)CC3)c(=O)c(F)c2n1 [I-86] | 33
27 | Cc1nc(N[C@H](C)c2cccc(C(F)(F)C(C)(C)O)c2F)c2cn(C3(C)CC3)c(=O)c(F)c2n1 [I-88] | <24
28 | Cc1nc(N[C@H](C)c2cccc(C(F)(F)C(C)(C)O)c2F)c2cn(C34CC(C3)C4)c(=O)c(F)c2n1 [I-90] | <24
29 | C[C@@H](Nc1ncnc2c(F)c(=O)n(C3(C(F)F)CC3)cc12)c1cccc(C(F)F)c1F [I-96] | 30
30 | Cc1nc(N[C@H](C)c2cccc(C(F)(F)F)c2)c2cn(C3(C(F)F)CC3)c(=O)cc2n1 [I-97] | <24

Test system: not listed separately
Assay: Metabolic (microsomal) stability assay, rat liver microsomes (RLM)
Type: in vitro ADME
Conditions: 1 μM test compound, 37° C.
Description: as §1

Row | Compound | RLM [% QH]
31 | Cc1nc(N[C@H](C)c2cccc(C(F)F)c2F)c2cn(C3CC(F)(F)C3)c(=O)cc2n1 [I-13] | 52
32 | Cc1nc(N[C@H](C)c2cccc(C(F)F)c2F)c2cn(C3(C)CC(F)(F)C3)c(=O)cc2n1 [I-14] | 56
33 | Cc1nc(N[C@H](C)c2cccc(C(F)(F)F)c2)c2cn(C(C)C)c(=O)cc2n1 [I-27] | <23
34 | Cc1nc(N[C@H](C)c2cccc(C(F)(F)F)c2C)c2cn([C@H]3C[C@](O)(C(F)(F)F)C3)c(=O)cc2n1 [I-47] | 29
35 | Cc1nc(N[C@H](C)c2cccc(C(C)(F)F)c2)c2cn(C34CC(F)(C3)C4)c(=O)cc2n1 [I-51] | 49
36 | C[C@@H](Nc1ncnc2cc(=O)n([C@H]3C[C@H](F)C3)cc12)c1cccc(C(F)F)c1F [I-69] | 40
37 | C[C@@H](Nc1ncnc2cc(=O)n(C34CC(F)(C3)C4)cc12)c1cccc(C(F)F)c1F [I-71] | <23
38 | Cc1nc(N[C@H](C)c2cccc(C(F)F)c2F)c2cn([C@H]3C[C@@H]3C(F)F)c(=O)c(F)c2n1 [I-83] | 42
39 | Cc1nc(N[C@H](C)c2cccc(C(F)F)c2F)c2cn([C@H]3C[C@H](F)C3)c(=O)c(F)c2n1 [I-84] | 29
40 | Cc1nc(N[C@H](C)c2cccc(C(F)F)c2F)c2cn([C@]3(C(F)(F)F)CCOC3)c(=O)c(F)c2n1 [I-85] | <23
41 | Cc1nc(N[C@H](C)c2cccc(C(C)(F)F)c2F)c2cn(C3(C)CC3)c(=O)c(F)c2n1 [I-86] | <23
42 | Cc1nc(N[C@H](C)c2cccc(C(F)(F)C(C)(C)O)c2F)c2cn(C3(C)CC3)c(=O)c(F)c2n1 [I-88] | <23
43 | Cc1nc(N[C@H](C)c2cccc(C(F)(F)C(C)(C)O)c2F)c2cn(C34CC(C3)C4)c(=O)c(F)c2n1 [I-90] | <23
44 | C[C@@H](Nc1ncnc2c(F)c(=O)n(C3(C(F)F)CC3)cc12)c1cccc(C(F)F)c1F [I-96] | <23
45 | Cc1nc(N[C@H](C)c2cccc(C(F)(F)F)c2)c2cn(C3(C(F)F)CC3)c(=O)cc2n1 [I-97] | <23

Target: protein-protein interaction between SOS1 and KRAS G12D (Homo sapiens (Human), UniProt Q07889)
Assay: KRAS::SOS1 AlphaScreen Binding Assay
Conditions: Table 20; KRAS::SOS1 AlphaScreen (SOS1 / KRAS G12D)
Procedure, shortened: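 Nucleotide-exchange interaction read by AlphaScreen (GSH acceptor / streptavidin donor beads, 10 μg/mL each): 10 nM KRAS G12D(1-169)-Avi, 10 μM GDP, 5 nM GST-SOS1(564-1049), 1% DMSO. Compound preincubated 30 min, then beads 60 min at RT in the dark; 11-point 1:5 series from 100 μM, duplicates; IC50 by 4-parameter logistic fit.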

protein-protein interaction between SOS1 and KRAS G12D, sequence (Q07889 564-1049, stated change not applied): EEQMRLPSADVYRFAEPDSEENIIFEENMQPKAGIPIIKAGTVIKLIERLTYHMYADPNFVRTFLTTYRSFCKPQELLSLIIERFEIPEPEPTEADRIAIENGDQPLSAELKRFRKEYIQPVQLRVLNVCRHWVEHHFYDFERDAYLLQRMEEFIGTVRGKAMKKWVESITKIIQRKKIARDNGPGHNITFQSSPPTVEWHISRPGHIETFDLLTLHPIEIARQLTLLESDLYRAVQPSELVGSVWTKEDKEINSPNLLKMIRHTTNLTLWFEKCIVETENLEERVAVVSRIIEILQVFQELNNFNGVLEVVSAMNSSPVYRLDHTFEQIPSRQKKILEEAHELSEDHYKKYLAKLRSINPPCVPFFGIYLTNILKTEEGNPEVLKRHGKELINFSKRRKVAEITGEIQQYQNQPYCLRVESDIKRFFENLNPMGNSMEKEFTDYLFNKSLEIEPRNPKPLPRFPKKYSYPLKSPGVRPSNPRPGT

Row | Compound | IC50 [nM]
46 | Cc1nc(N[C@H](C)c2cccc(C(F)F)c2F)c2cn(C3CC(F)(F)C3)c(=O)cc2n1 [I-13] | 11
47 | Cc1nc(N[C@H](C)c2cccc(C(F)F)c2F)c2cn(C3(C)CC(F)(F)C3)c(=O)cc2n1 [I-14] | 21
48 | Cc1nc(N[C@H](C)c2cccc(C(F)(F)F)c2)c2cn(C(C)C)c(=O)cc2n1 [I-27] | 38
49 | Cc1nc(N[C@H](C)c2cccc(C(F)(F)F)c2C)c2cn([C@H]3C[C@](O)(C(F)(F)F)C3)c(=O)cc2n1 [I-47] | 33
50 | Cc1nc(N[C@H](C)c2cccc(C(C)(F)F)c2)c2cn(C34CC(F)(C3)C4)c(=O)cc2n1 [I-51] | 31
51 | C[C@@H](Nc1ncnc2cc(=O)n([C@H]3C[C@H](F)C3)cc12)c1cccc(C(F)F)c1F [I-69] | 6
52 | C[C@@H](Nc1ncnc2cc(=O)n(C34CC(F)(C3)C4)cc12)c1cccc(C(F)F)c1F [I-71] | 7
53 | Cc1nc(N[C@H](C)c2cccc(C(F)F)c2F)c2cn([C@H]3C[C@@H]3C(F)F)c(=O)c(F)c2n1 [I-83] | 15
54 | Cc1nc(N[C@H](C)c2cccc(C(F)F)c2F)c2cn([C@H]3C[C@H](F)C3)c(=O)c(F)c2n1 [I-84] | 8
55 | Cc1nc(N[C@H](C)c2cccc(C(F)F)c2F)c2cn([C@]3(C(F)(F)F)CCOC3)c(=O)c(F)c2n1 [I-85] | 9
56 | Cc1nc(N[C@H](C)c2cccc(C(C)(F)F)c2F)c2cn(C3(C)CC3)c(=O)c(F)c2n1 [I-86] | 6
57 | Cc1nc(N[C@H](C)c2cccc(C(F)(F)C(C)(C)O)c2F)c2cn(C3(C)CC3)c(=O)c(F)c2n1 [I-88] | 2
58 | Cc1nc(N[C@H](C)c2cccc(C(F)(F)C(C)(C)O)c2F)c2cn(C34CC(C3)C4)c(=O)c(F)c2n1 [I-90] | 4
59 | C[C@@H](Nc1ncnc2c(F)c(=O)n(C3(C(F)F)CC3)cc12)c1cccc(C(F)F)c1F [I-96] | 7
60 | Cc1nc(N[C@H](C)c2cccc(C(F)(F)F)c2)c2cn(C3(C(F)F)CC3)c(=O)cc2n1 [I-97] | 14

Test system: ERK phosphorylation in DLD-1 cells (KRAS G13D)
Assay: ERK Phosphorylation Assay (AlphaLISA SureFire Ultra p-ERK1/2)
Type: cell-based
Conditions: Homo sapiens, 1 h compound, EGF 50 ng/mL 10 min, read-out: pERK
Description: ERK Phosphorylation Assay
Low IC50 values are indicative of high potency of the SOS1 inhibitor compounds in this assay setting.
ERK phosphorylation assays are performed using the following human cell lines: DLD-1 (ATCC CCL-221): human colon cancer with a KRAS G13D mutation;
DLD-1 cells (ATCC CCL-221) are seeded at 50,000 cells per well in/60 μL of RPMI with 10% FBS, non-essential amino acids, pyruvate and glutamax in Greiner TC 384 plates. The cells are incubated for 1 h at room temperature and then incubated overnight in an incubator at 37° C. and 5% CO2 in a humidified atmosphere. 60 nL compound solution (10 mM DMSO stock solution) is then added using a Labcyte Echo 550 device. After a 1 h incubation in the aforementioned incubator, 3 μL Epidermal Growth Factor (EGF, final concentration 50 ng/mL) is added. 10 minutes later the medium is removed, and the cells lysed by addition of 20 μL of 1.6-fold lysis buffer from the AlphaLISA SureFire Ultra pERK1/2 (Thr202/Tyr204) Assay Kit with added protease inhibitors, 100 nM trametinib+100 nM staurosporine. After 20 minutes of incubation at room temperature with shaking, 6 μL of each lysate sample is transferred to a 384-well Proxiplate and analyzed for pERK (Thr202/Tyr204) with the AlphaLISA SureFire Ultra pERK1/2 (Thr202/Tyr204) Assay Kit. 3 μL Acceptor Mix and 3 μL Donor Mix are added under subdued light and incubated for 2 h at room temperature in the dark, before the signal is measured on a Perkin Elmer Envision plate reader using 384 AlphaScreen settings for Proxiplates. Data are fitted by iterative calculation with variable hill slope. The sigmoidal curve slope is fitted using a default fitting curve to ascertain IC50 values.

Row | Compound | IC50 [nM]
61 | Cc1nc(N[C@H](C)c2cccc(C(F)(F)F)c2)c2cn(C3(C(F)F)CC3)c(=O)cc2n1 [I-97] | 81

Reference: US10829487B2, “Benzylamino substituted pyridopyrimidinones and derivatives as SOS1 inhibitors” (Boehringer Ingelheim International GmbH, priority 2017, dated 2020)
